Data reported in ChEMBL document CHEMBL4184261, “Activation loop targeting strategy for design of receptor-interacting protein kinase 2 (RIPK2) inhibitors” (Bioorg Med Chem Lett, 2018).
Active and inactive are the calls of the source. No cut-off for these calls is given here.

Key:
[1] = biological target: Receptor-interacting serine/threonine-protein kinase 2 (Homo sapiens) (UniProt O43353); experiment: Inhibition of wild type recombinant human His6-tagged RIPK2 at 0.5 uM using RS repeat peptide substrate incubated for 2 hrs by ADP-Glo assay
[2] = biological target: Receptor-interacting serine/threonine-protein kinase 2 (Homo sapiens) (UniProt O43353); experiment: Inhibition of wild type recombinant human His6-tagged RIPK2 at 5 uM using RS repeat peptide substrate incubated for 2 hrs by ADP-Glo assay
[3] = test system: Receptor-interacting serine/threonine-protein kinase 2 (Homo sapiens), O43353 [R171C]; experiment: Inhibition of recombinant human His6-tagged RIPK2 R171C mutant at 5 uM using RS repeat peptide substrate incubated for 2 hrs by ADP-Glo assay
[4] = organism: Homo sapiens; experiment: Selectivity index, ratio of IC50 for recombinant human His6-tagged RIPK2 R171C mutant to IC50 for wild type recombinant human His6-tagged RIPK2
[5] = biological target: Vascular endothelial growth factor receptor 2 (Homo sapiens) (UniProt P35968); experiment: Inhibition of N-terminal GST tagged recombinant human KDR (789 to end residues) expressed in baculovirus infected Sf9 cells at 20 uM using poly-E4Y1 substrate incubated for 2 hrs by ADP-Glo assay
[6] = organism: Homo sapiens; experiment: Selectivity index, ratio of inhibition of N-terminal GST tagged recombinant human KDR (789 to end residues) expressed in baculovirus infected Sf9 cells to inhibition of wild type recombinant human His6-tagged RIPK2
[7] = biological target: Receptor-interacting serine/threonine-protein kinase 2 (Homo sapiens) (UniProt O43353); experiment: Inhibition of wild type recombinant human His6-tagged RIPK2 at 10 uM using RS repeat peptide substrate incubated for 2 hrs by ADP-Glo assay

Chain of Receptor-interacting serine/threonine-protein kinase 2 (Homo sapiens) (O43353 whole entry): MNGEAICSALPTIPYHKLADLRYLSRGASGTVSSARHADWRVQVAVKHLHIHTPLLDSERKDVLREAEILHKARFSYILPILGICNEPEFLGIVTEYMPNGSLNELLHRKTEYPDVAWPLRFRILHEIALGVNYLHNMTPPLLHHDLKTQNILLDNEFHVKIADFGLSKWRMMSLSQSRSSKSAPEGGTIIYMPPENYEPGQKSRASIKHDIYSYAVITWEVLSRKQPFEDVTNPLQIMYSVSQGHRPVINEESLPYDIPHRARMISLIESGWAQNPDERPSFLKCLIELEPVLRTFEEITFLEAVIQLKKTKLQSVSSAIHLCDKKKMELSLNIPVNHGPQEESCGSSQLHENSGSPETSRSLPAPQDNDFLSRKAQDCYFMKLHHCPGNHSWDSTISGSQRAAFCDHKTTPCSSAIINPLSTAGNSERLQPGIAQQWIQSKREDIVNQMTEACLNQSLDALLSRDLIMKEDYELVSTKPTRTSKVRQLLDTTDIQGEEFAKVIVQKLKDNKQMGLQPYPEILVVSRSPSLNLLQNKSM
Chain of Receptor-interacting serine/threonine-protein kinase 2 (Homo sapiens), O43353 [R171C] (O43353 whole entry R171C): as the sequence (O43353 whole entry) above, with R171C counted along it
Chain of Vascular endothelial growth factor receptor 2 (Homo sapiens) (P35968 whole entry): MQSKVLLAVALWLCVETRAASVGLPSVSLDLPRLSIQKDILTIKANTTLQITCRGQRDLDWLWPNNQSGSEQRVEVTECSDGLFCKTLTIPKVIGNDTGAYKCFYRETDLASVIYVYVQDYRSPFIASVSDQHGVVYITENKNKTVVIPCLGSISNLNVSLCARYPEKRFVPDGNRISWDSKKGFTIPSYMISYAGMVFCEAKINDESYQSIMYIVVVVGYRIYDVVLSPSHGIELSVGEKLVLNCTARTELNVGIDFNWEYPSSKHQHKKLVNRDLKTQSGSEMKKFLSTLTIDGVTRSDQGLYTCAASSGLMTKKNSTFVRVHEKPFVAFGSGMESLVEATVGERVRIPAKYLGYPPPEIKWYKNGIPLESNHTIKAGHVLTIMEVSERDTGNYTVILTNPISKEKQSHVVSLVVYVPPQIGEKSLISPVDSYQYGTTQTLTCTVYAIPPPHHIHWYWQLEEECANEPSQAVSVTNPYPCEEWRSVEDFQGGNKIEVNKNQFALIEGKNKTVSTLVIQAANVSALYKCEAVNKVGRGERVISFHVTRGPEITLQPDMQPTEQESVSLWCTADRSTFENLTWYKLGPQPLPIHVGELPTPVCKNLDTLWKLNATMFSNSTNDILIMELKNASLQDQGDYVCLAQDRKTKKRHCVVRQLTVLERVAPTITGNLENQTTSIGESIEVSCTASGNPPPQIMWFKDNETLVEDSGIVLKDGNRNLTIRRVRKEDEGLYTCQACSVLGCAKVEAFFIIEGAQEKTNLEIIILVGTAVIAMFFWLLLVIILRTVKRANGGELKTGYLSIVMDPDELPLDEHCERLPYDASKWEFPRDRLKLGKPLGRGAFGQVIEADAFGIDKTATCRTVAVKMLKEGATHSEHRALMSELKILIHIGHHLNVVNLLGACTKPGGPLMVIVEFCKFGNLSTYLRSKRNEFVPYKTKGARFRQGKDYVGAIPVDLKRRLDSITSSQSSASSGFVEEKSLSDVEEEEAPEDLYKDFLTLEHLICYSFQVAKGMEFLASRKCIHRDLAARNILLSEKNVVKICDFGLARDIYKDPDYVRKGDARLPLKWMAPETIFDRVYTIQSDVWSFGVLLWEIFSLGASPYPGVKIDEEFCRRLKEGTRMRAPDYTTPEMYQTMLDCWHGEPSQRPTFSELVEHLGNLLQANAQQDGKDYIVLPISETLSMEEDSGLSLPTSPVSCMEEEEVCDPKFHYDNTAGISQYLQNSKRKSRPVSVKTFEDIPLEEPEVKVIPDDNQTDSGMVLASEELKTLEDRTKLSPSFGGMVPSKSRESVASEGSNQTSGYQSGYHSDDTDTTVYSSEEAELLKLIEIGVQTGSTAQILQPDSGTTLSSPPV

Structure (SMILES)	inhibition [1]	inhibition [2]	also measured
CNC(=O)c1cc(Oc2ccc(NC(=O)Nc3ccc(SCC(=O)O)cc3)c(F)c2)ccn1	–	27%	inhibition [3]: 17%
CNC(=O)c1cc(Oc2ccc(NC(=O)Nc3ccc(N4CC(=O)NS4(=O)=O)c(C)c3)c(F)c2)ccn1	1%	–	–
CNC(=O)c1cc(Oc2ccc(NC(=O)Nc3ccc(SCC(=O)O)c(F)c3)c(F)c2)ccn1	–	70%	inhibition [3]: 64%; Ratio IC50 [4]: 2; inhibition [5]: 35.8%; Selectivity Index [6]: > 10
Nc1ccc(SCC(=O)O)c(F)c1	–	–	inhibition [7]: 10%
CNC(=O)c1cc(Oc2ccc(NC(=O)Nc3ccc(OCCS(C)(=O)=O)c(C)c3)c(F)c2)ccn1	35%	–	–

More lines, main results first:

inhibition [1]	inhibition [2]	Structure (SMILES)	also measured
inactive	–	CNC(=O)c1cc(Oc2ccc(NC(=O)Nc3cccc(C(=O)O)c3)c(F)c2)ccn1	–
–	18%	CNC(=O)c1cc(Oc2ccc(NC(=O)Nc3ccc(CC(=O)O)cc3)c(F)c2)ccn1	–
–	25%	CNC(=O)c1cc(Oc2ccc(NC(=O)Nc3cccc(SCC(=O)O)c3)c(F)c2)ccn1	–
inactive	–	CNC(=O)c1cc(Oc2ccc(NC(=O)Nc3ccc(C(=O)O)cc3)c(F)c2)ccn1	–
–	inactive	CNC(=O)c1cc(Oc2ccc(NC(=O)Nc3cccc(CC(=O)O)c3)c(F)c2)ccn1	inhibition [3]: inactive
12%	–	CNC(=O)c1cc(Oc2ccc(NC(=O)Nc3cccc(CCN)c3)c(F)c2)ccn1	–
–	47%	CNC(=O)c1cc(Oc2ccc(NC(=O)Nc3cccc(C(C)(C)C(=O)O)c3)c(F)c2)ccn1	–
32%	–	CNC(=O)c1cc(Oc2ccc(NC(=O)Nc3cccc(C(C)(C)N)c3)c(F)c2)ccn1	–
